For series [1] the following is noted: after oral administration at therapeutic dose levels; cited from earlier work.
The target in series [2] is T1, guanylate cyclase-C (GC-C) (Homo sapiens, UniProt P25092). Briefly: cGMP response in T84 cells (GC-C agonist activity). In kind it is cell-based. Also noted: tested for guanylate cyclase-C (GC-C) agonist activity in T84 cells; endogenous in cells; host or cells: T84 cells. As for the experimental part:
Linaclotide and Cys1-IMD were tested for guanylate cyclase-C (GC-C) agonist activity in T84 cells as follows. In each well of a 96-well plate, approximately 200,000 T84 cells/well was first incubated with 1 mM 3-isobutyl-1-methylxanthine (IBMX) in 0.18 mL of Dulbecco's modified Eagle's medium (DMEM) for 10 minutes at 37° C. Each peptide was diluted to final concentrations ranging from 0.1 to 10,000 nM, and 0.02 mL of each dilution was added in duplicate to a 96-well plate containing the T84 cells, for a final volume of 0.20 mL per well. The peptide reactions were incubated for 30 min at 37° C. Following the incubation, the supernatants were removed and discarded and the cells were lysed with cold 0.1 M hydrochloric acid (HCl) for 30 min on ice. The cell debris was removed by centrifugation and the concentration of guanosine 3′,5′-cyclic monophosphate (cyclic GMP) in each lysate was determined using liquid chromatography with tandem mass spectrometry. The data were used to construct dose-response curves and calculate half-maximal effective concentration (EC50) values for each test article.

Series [3] addresses T1, guanylate cyclase-C (GC-C). Briefly: Competitive radioligand ([125I]-pSTa) binding assay on T84 cells. Also noted: cell-surface GC-C receptors on human colonic epithelial (T84) cells; endogenous in cells; host or cells: T84 human colonic epithelial cells. The conditions noted are these: competition with 170 pM [125I]-pSTa for cell-surface GC-C receptors on T84 cells; read-out: inhibition constant (Ki), relative binding affinity. As for the experimental part: The relative binding affinities of linaclotide and Cys1-IMD to the guanylate cyclase-C receptor (GC-C) were determined using a competitive-binding assay in which the peptides competed with a known GC-C agonist, porcine-derived heat-stable enterotoxin (pSTa), for binding sites on cell-surface GC-C receptors on human colonic epithelial (T84) cells. The pSTa was radiolabeled with ^125I to enable measurement of its receptor binding. The competitive-binding assay was performed by adding various concentrations of each peptide (0.1 to 3,000 nM) to 0.20 mL reaction mixtures containing Dulbecco's modified Eagle's medium (DMEM), 0.5% bovine serum albumin (BSA), 2.0×10^5 T84 cells, and 170 pM [^125I]-pSTa (200,000 cpm). The data were used to construct competitive radioligand-binding curves and determine the relative binding affinities of linaclotide and Cys1-IMD, as measured by their IC50 and Ki values.

As usually defined, the EC50 is the concentration giving half of the maximal effect. Read a low EC50 as greater potency. Broadly, the Ki is a measure of affinity in units of concentration, obtained from inhibition or displacement.

Where a SMILES comes first, the peptide text is derived from it. Bridges are numbered along the chain shown (N, C = ends).

T1 sequence (P25092 24-1073): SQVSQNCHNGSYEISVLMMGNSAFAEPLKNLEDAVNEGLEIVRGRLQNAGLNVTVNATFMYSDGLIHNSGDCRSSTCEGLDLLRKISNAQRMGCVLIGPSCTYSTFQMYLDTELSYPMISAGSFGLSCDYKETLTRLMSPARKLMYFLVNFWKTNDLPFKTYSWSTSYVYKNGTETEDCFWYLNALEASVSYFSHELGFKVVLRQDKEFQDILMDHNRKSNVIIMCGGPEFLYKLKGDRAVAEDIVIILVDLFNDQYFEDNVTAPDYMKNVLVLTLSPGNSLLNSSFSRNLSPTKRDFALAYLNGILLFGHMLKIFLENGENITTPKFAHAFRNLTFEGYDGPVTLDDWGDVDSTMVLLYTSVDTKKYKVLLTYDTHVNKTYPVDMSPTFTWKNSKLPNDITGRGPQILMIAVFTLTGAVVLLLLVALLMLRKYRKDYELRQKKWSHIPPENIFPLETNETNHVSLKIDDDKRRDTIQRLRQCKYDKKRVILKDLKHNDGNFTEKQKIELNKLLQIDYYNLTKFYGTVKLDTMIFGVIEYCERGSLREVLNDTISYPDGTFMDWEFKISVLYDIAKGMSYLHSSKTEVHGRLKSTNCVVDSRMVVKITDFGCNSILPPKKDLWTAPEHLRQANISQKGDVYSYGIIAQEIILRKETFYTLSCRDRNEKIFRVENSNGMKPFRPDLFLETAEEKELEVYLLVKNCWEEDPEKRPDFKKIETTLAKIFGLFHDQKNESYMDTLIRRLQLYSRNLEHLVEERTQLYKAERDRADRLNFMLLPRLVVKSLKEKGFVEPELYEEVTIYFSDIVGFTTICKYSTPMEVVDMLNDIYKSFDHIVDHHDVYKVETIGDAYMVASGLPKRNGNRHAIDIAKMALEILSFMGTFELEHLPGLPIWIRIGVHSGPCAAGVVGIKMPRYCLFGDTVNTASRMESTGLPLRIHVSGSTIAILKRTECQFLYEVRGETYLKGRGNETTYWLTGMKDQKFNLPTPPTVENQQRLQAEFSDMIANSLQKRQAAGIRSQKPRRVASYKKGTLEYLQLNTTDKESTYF

Consider `C[C@@H]1NC(=O)[C@@H]2CCCN2C(=O)[C@H](CC(N)=O)NC(=O)[C@@H]2CSSC[C@H](N)C(=O)N[C@H]3CSSC[C@H](NC1=O)C(=O)N[C@@H]([C@@H](C)O)C(=O)NCC(=O)N[C@H](C(=O)N[C@@H](Cc1ccc(O)cc1)C(=O)O)CSSC[C@H](NC(=O)[C@H](Cc1ccc(O)cc1)NC(=O)[C@H](CCC(=O)O)NC3=O)C(=O)N2` [Linaclotide, Cys Cys Glu Tyr Cys Cys Asn Pro Ala Cys Thr Gly Cys Tyr] (H-CCEYCCNPACTGCY-OH; disulfide 1-6, 2-10, 5-13 (inferred); N-terminus and C-terminus assumed), for which, in series [1], the “levels of linaclotide seen systemically” value is “no detectable levels”. Further, in series [2], the EC50 worked out at 315 ± 105 nM. Moreover, the Ki in series [3] amounted to 3.9 ± 1.6 nM.

The record behind these values is US8933030B2, “Treatments for gastrointestinal disorders” (Ironwwod Pharmaceuticals, Inc., priority 2010, dated 2015).
